Laboratory results from patent US20240358692A1, “TREATMENT OF SCLERODERMA” (Aisa Pharma, Inc., priority 2023, published 2024).

What was measured:
[1] = test system: participants with SSc-RP; type: in vivo; details: tadalafil monotherapy group
Excerpt: Treatment-emergent AEs (TEAEs) are defined as AEs that occur or worsen after the dose of study drug. If the timing of the start of an AE could not be determined unambiguously from the start or end dates provided, it will be assumed to be a TEAE. An AE is considered related if the relationship to either of the study drug has been indicated as possibly or probably or definite related by the investigator. An AE leading to study withdrawal is defined as an AE that cause a subject early terminated from the study. AEs will be identified as emerging in the following parts: • TEAEs for Part A will be those that started during Part A (i.e., from the first dose in Part A to end of follow up of Part A) • TEAEs for Part B will be those that started during Part B (i.e., from the first dose in Part B to end of follow-up of Part B).
In this study, AEs and SAEs were reported for all participants from the time of randomization until the completion of the Follow-up/EOS visit. Adverse events that were ongoing at the EOS visit were marked as Not Recovered/Not resolved on the AE eCRF page (see Section 9.4.4). The Investigator did full AE review during in-clinic visit. All spontaneously volunteered and enquired for, as well as observed AEs, were recorded in the participant's medical records and the eCRF.
Severity of AEs were graded by the Investigator as one of: • Mild (Grade 1): A type of AE that is usually transient and may require only minimal treatment or therapeutic intervention.

[2] = test system: participants with SSc-RP; assay: SHAQ - Visual Analog Scale - Breathing Problems; type: in vivo, human; parameters: Visual Analog Scale-Breathing Problems, In Clinic Visit (Day 12), Mean / Visual Analog Scale-Breathing Problems, In Clinic Visit (Day 12), Median / SHAQ Visual Analogue Scale - Breathing Problems, In-Clinic Visit (Day 12), Mean / SHAQ Visual Analogue Scale - Breathing Problems, In-Clinic Visit (Day 12), Median / SHAQ Visual Analogue Scale - Breathing Problems, Change from Baseline, Median: scale not given here
Excerpt: The standard, validated, patient reported outcome measures tool for SSc patients, the Scleroderma Health Assessment Questionnaire (SHAQ), will be used to assess the participant qualify of life. Details are attached in the Appendix. The participant quality of life will be scored, and a disability index calculated for each questionnaire completed by the patient at Screening and each in-clinic visit. The absolute change in participant quality of life from baseline to the end of each dosing period will be calculated similar to frequency data as before.
The standard, validated, patient reported outcome measures tool for SSc patients, the SHAQ, was collected at the time points specified in the study schedules (FIG. 2 and FIGS. 4A and 4B) to assess the participant's quality of life. The SHAQ included a Raynaud's VAS that will also be reported separately.

[3] = Modified ITT Population-Part A, dose cilnidipine 10 mg, tadalafil 5 mg, alone or combined as labelled
[4] = Tadalafil 5 mg, SSc patients, PP, Part A

With `CN1CC(=O)N2[C@H](c3ccc4c(c3)OCO4)c3[nH]c4ccccc4c3C[C@@H]2C1=O` [Tadalafil] the “Worst AE (group)” value [1] was “Worst AE in tadalafil”, the “Visual Analog Scale-Breathing Problems, Change from Baseline, Mean” value ([2]; Modified ITT Population-Part A, Day 12, dose cilnidipine 10 mg, tadalafil 5 mg, alone or combined as labelled) was 0.500 and the “Visual Analog Scale-Breathing Problems, In Clinic Visit (Day 12), Mean” value [2, 3] was 4.300. The “Visual Analog Scale-Breathing Problems, In Clinic Visit (Day 12), Median” value [2, 3] was 4.000, the “SHAQ VAS Breathing Problems, Change from Baseline, Max” value [2, 4] was 2.80 and the “SHAQ VAS Breathing Problems, Change from Baseline, Mean” value [2, 4] was 0.500. The “SHAQ VAS Breathing Problems, Change from Baseline, Median” value [2, 4] was 1.050, the “SHAQ VAS Breathing Problems, Change from Baseline, Min” value [2, 4] was −2.90, and the “SHAQ VAS Breathing Problems, Change from Baseline, Q1” value [2, 4] was −1.450,. The “SHAQ VAS Breathing Problems, Change from Baseline, Q3” value [2, 4] was 2.450, the “SHAQ VAS Breathing Problems, Day 12, Max” value [2, 4] was 9.20 and the “SHAQ VAS Breathing Problems, Day 12, Mean” value [2, 4] was 4.300. For the same molecule, the “SHAQ VAS Breathing Problems, Day 12, Median” value [2, 4] was 4.000, the “SHAQ VAS Breathing Problems, Day 12, Min” value [2, 4] was 0.00, and the “SHAQ VAS Breathing Problems, Day 12, Q1” value [2, 4] was 0.100,. For the same molecule, the “SHAQ VAS Breathing Problems, Day 12, Q3” value [2, 4] was 8.500, the “SHAQ VAS Breathing Problems, Percent Change from Baseline, Max” value [2, 4] was 56.0 and the “SHAQ VAS Breathing Problems, Percent Change from Baseline, Mean” value [2, 4] was −2.66. The “SHAQ VAS Breathing Problems, Percent Change from Baseline, Median” value [2, 4] was 29.58, the “SHAQ VAS Breathing Problems, Percent Change from Baseline, Min” value [2, 4] was −93.5, and the “SHAQ VAS Breathing Problems, Percent Change from Baseline, Q1” value [2, 4] was −93.55,. For the same molecule, the “SHAQ VAS Breathing Problems, Percent Change from Baseline, Q3” value [2, 4] was 56.00.
